Experimental data reported in PMC8469457, “Proline-Specific Fungal Peptidases: Genomic Analysis and Identification of Secreted DPP4 in Alkaliphilic and Alkalitolerant Fungi” (Journal of Fungi, 2021).

Biological target: T1, DPP4 of S. alkalinus F11 (secreted DPP4, culture filtrate) (Sodiomyces alkalinus, UniProt A0A3N2PX53)
T1 construct: gene SODALDRAFT_276413; native secreted enzyme, unpurified 14-day culture filtrate; link of ROT38925.1 to the assayed activity is inferred
T1 sequence (A0A3N2PX53 27-782): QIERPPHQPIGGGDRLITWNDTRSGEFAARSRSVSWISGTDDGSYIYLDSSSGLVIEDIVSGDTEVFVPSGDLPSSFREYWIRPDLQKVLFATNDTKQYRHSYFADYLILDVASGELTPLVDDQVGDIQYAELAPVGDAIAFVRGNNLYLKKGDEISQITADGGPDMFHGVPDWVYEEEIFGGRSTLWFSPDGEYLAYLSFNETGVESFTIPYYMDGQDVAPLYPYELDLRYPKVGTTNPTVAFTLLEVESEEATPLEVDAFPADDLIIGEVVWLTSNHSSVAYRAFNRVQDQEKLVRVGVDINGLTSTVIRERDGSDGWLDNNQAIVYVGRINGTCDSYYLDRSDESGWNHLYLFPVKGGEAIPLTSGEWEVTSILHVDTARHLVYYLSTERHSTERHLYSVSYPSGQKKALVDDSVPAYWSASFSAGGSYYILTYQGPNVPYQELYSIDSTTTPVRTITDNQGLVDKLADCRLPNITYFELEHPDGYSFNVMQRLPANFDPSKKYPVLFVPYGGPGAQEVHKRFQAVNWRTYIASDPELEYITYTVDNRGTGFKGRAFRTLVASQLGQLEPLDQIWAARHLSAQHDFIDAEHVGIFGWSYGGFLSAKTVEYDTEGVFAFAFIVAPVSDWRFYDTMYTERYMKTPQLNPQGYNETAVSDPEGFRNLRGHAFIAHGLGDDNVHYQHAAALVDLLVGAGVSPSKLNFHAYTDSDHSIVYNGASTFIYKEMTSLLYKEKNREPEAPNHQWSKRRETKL
Assay: residual hydrolysis of Ala-Pro-pNa, absorbance at […] nm, culture filtrate
Assay type: biochemical
Conditions: read-out: % residual activity at 0.25 mM

`CC[C@H](C)[C@H](N)C(=O)N1CCC[C@H]1C(=O)N[C@H](C(=O)O)[C@@H](C)CC` [diprotin A] was tested, and the remaining activity at 250 µM was 3.2%.
